{"source": "patent US20230270721A1", "about": "“INHIBITION OF BAX-MEDIATED CELL DEATH BY ELTROMBOPAG” (Albert Einstein College of Medicine, priority 2020, published 2023)", "key": {"[1]": {"target": "T1, BAX-4C (Homo sapiens, UniProt Q07812, C126S/C62S/S4C)", "T1 construct": "Human full-length (1-192) wild-type BAX (Q07812); made in house; host or cells: E. coli BL21 (DE3) CodonPlus (DE3)-RIPL", "T1 sequence (Q07812 whole entry S4C/C62S/C126S)": "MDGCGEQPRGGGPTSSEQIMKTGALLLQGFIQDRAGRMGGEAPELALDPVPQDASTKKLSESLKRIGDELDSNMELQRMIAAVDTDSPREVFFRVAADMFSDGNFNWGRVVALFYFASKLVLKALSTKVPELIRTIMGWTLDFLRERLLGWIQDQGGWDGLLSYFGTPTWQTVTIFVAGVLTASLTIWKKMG", "assay": "Microscale thermophoresis (MST) direct binding", "conditions": "50 nM labeled BAX; read-out: dissociation constant KD", "experimental": "(§1) Recombinant BAX C62S-C126S-S5C (4C), previously established for evaluating BAX (Garner, T.P., et al. Nat Chem Biol 15, 322-330 (2019)) binding compounds with MST, or BAX C62S-C126S-S5C-R134E-R145E (R134E-R145E-4C) was labeled at cysteine using the Monolith Protein Labeling Kit Red Maleimide (NanoTemper Technologies) according to the instructions of the manufacturer (Garner, T.P., et al. Nat Chem Biol 15, 322-330 (2019)). Briefly, 10 µM protein was incubated with 0.9 equivalents of dye in MST buffer (100 mM potassium phosphate, pH 7.4, 150 mM NaCI) in the dark at room temperature (22-25° C.) for 1 hr. […] Samples were loaded into standard glass capillaries (Monolith NT.155 Capillaries) and analyzed by MST using a Monolith NT.115 Blue/Red, LED power and IR laser power of 80%. Fraction bound and error was generated by NanoTemper software (MO.Affinity Analysis), and KD values were determined using GraphPad Prism nonlinear fit four-parameter agonist versus response with restraints for 0 and 1 fraction bound.\nTo test this hypothesis, a competitive fluorescence polarization assay (FPA) (Gavathiotis, E., et al. Nat Chem Biol 8, 639-645 (2012)) based on the interaction between BAX and fluorescently-labeled stapled BIM-BH3 peptide (FITC-BIM-SAHB) was used (Gavathiotis, E., et al. Nature 455, 1076-1081 (2008)). […]"}, "[2]": {"target": "T2, BAX-4C R134E R145E (Homo sapiens, UniProt Q07812, C126S/C62S/R134E/R145E/S4C)", "T2 construct": "Human full-length (1-192) wild-type BAX (Q07812); made in house; host or cells: E. coli BL21 (DE3) CodonPlus (DE3)-RIPL", "T2 sequence (Q07812 whole entry S4C/C62S/C126S/R134E/R145E)": "as the sequence (Q07812 whole entry S4C/C62S/C126S) above, with R134E, R145E counted along it", "assay": "Microscale thermophoresis (MST) direct binding, double mutant", "conditions": "double mutant versus wild type BAX-4C", "experimental": "as §1, with “hr. Unreacted dye was quenched using 5 mM DTT and removed using the manufacturer-provided buffer exchange column.” for “hr.”\nWith this known, the EO docking poses were reevaluated, and the top pose featuring an ionic interaction between the EO-carboxylate and sidechain of R145 was analyzed (FIGS. 2E, 2F, and 2G). […]"}, "[3]": {"target": "T3, BAX R134E (Homo sapiens, UniProt Q07812, R134E)", "T3 construct": "Human full-length (1-192) wild-type BAX (Q07812); made in house; host or cells: E. coli BL21 (DE3) CodonPlus (DE3)-RIPL", "T3 sequence (Q07812 whole entry R134E)": "as the sequence (Q07812 whole entry S4C/C62S/C126S) above, with C4S, S62C, S126C, R134E counted along it", "assay": "Liposomal permeabilization assay, trigger site mutant R134E", "type": "biochemical", "conditions": "250 nM BAX and 5 nM tBID", "experimental": "Lipids (Avanti Polar Lipids) at the following ratio, phosphatidylcholine 48%, phosphatidylinositol 10%, dioleoyl phosphatidylserine 10%, phosphatidylethanolamine, 28%, and tetraoleoyl cardiolipin 4%, were mixed in a total of 1 mg, dried and resuspended in 10 mM HEPES, pH 7, 200 mM KCI, and 5 mM MgCl2 with 12.5 mM 8-aminonaphthalene-1,3,6-trisulfonic acid (ANTS) dye and 45 mM p-xylene-bis-pyridinium bromide (DPX) quencher (Molecular Probes) using a water bath sonicator. Liposomes were formed by extrusion of the suspension using Avanti Mini-Extruder (Cat # 610000) with polycarbonate membranes of 0.1 µm pore size (Avanti Polar Lipids). […] ANTS/DPX release was quantified based on the increase in fluorescence intensity that occurs when the ANTS fluorophore is separated from the DPX quencher upon release from the liposomes into solution. Fluorescence (λex = 355 nm and λem = 520 nm) was measured at 1 minute intervals at room temperature (22-25° C.) indicated using a Tecan Infinite M1000 plate reader. In the case of heat activation, reactions were set up as described in the absence of tBID or BIM, and experiments were recorded at 42° C. The percentage release of ANTS/DPX at any given time point was calculated as percentage release=((F-F0)/(F100-F0))(100), where F0 and F100 are baseline and maximal fluorescence, respectively. […]"}, "[4]": {"target": "T4, BAX (Homo sapiens, UniProt Q07812)", "T4 construct": "Human full-length (1-192) wild-type BAX (Q07812); made in house; host or cells: E. coli BL21 (DE3) CodonPlus (DE3)-RIPL", "T4 sequence (Q07812 whole entry)": "as the sequence (Q07812 whole entry S4C/C62S/C126S) above, with C4S, S62C, S126C counted along it", "assay": "BAX conformation change assay using anti-6A7 immunoprecipitation", "type": "biochemical", "conditions": "BAX 10 µM, 4 equivalents BIM-BH3, 5 or 10 equivalents EO", "experimental": "Exposure of the 6A7 epitope of BAX was assessed by immunoprecipitation with a 6A7-domain-specific antibody purchased from Santa Cruz (SC-23959). Protein G beads (50 µL, Santa Cruz) were washed three times with 3% BSA in PBS and incubated with 15 µL 6A7 antibody at 4° C. for 1 hr. Recombinant full-length BAX (10 µM) was incubated with 4 equivalents of BIM-BH3 peptide alone and in the presence of 5 or 10 equivalents of EO for 15 min at room temperature. Incubation of full-length recombinant BAX with 0.1% Triton X served as a positive control for exposure of the 6A7 epitope. After incubation, 10 µL of each reaction was transferred to the protein G beads pre-loaded with the anti-6A7 antibody, and 1 µL was reserved as a loading control. After 90 minutes of incubation at 4° C. beads were collected and washed three times with […] of 3% BSA in PBS and solubilized with 25 µL LDS/DTT loading buffer. Samples were resolved by SDS-PAGE electrophoresis and western blot analysis with an anti-BAX yth-2D2 antibody (Invitrogen).\nPrior to permeabilizing membranes, activated BAX must first translocate to the membrane (Lovell, J. F. et al. Cell 135, 1074-1084, (2008)). To explore this earlier step in BAX activation, an NBD-fluorescence-based translocation assay was used. […]"}}}
{"smiles": "CC1=NN(c2ccc(C)c(C)c2)C(=O)/C1=N\\Nc1cccc(-c2cccc(C(=O)O)c2)c1O", "note": "[EO, eltrombopag]", "values": [{"measurement": "Kd", "setting": "[1]", "value": 143, "unit": "nM"}, {"measurement": "affinity as determined by MST", "setting": "[2]", "value": "markedly reduced affinity"}, {"measurement": "inhibition of liposomal release versus BAX WT", "setting": "[3]", "value": "slight trend towards weaker inhibition"}, {"measurement": "BIM-BH3 induced 6A7 epitope exposure", "setting": "[4]", "value": "inhibited"}]}
